IC50 data for two molecules are collected here from ChEMBL document CHEMBL4229384, “Success stories of natural product-based hybrid molecules for multi-factorial diseases” (Eur J Med Chem, 2018).

The IC50 is the point on the concentration scale where inhibition reaches its midpoint.

In experiment [1] the target is Amyloid-beta precursor protein (Homo sapiens, UniProt P05067). Nature of the experiment: Inhibition of beta amyloid (unknown origin) deposition.
Experiment [2] is described as follows: Antioxidant activity assessed as reduction in oxidative stress. The format is functional.
The target of experiment [3] is DNA. In words: Binding affinity to Ha-ras DNA (unknown origin) assessed as Ha-ras PCR product formation. It counts as nucleic-acid assay.
Experiment [4] has as its target DNA. Nature of the experiment: Binding affinity to human estrogen receptor DNA assessed as estrogen receptor PCR product formation. It counts as nucleic-acid assay.

Chain of Amyloid-beta precursor protein (P05067 whole entry): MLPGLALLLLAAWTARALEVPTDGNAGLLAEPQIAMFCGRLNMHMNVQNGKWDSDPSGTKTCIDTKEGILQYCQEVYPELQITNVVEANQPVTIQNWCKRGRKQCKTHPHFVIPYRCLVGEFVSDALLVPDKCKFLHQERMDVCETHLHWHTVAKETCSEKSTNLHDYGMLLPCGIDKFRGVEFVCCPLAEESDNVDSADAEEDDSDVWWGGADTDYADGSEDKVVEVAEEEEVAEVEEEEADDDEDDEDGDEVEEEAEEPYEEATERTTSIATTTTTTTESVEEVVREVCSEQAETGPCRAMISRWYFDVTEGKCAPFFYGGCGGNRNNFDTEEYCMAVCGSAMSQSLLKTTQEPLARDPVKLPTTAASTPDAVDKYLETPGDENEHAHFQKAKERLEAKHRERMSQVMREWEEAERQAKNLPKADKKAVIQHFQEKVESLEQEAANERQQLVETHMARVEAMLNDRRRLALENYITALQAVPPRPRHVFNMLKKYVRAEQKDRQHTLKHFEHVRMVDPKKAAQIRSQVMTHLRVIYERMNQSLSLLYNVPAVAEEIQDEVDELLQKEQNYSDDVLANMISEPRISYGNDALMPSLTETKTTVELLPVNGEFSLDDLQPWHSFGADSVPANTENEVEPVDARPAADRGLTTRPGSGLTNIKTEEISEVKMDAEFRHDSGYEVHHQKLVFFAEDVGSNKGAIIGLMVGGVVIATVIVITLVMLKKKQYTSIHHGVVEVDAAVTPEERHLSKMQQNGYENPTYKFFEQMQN

Turning to `O=C(CCCCC1CCSS1)NCCCNc1c2c(nc3cc(Cl)ccc13)CCCC2` (centres undefined) [LIPOCRINE], the IC50 in experiment [1] turned out to be 45 µM; in experiment [2], 10 µM.
For the molecule `COc1cc2c(cc1OCCC(=O)Nc1cc(C(=O)Nc3cc(C(=O)Nc4cc(C(=O)NCCC(=N)N)n(C)c4)n(C)c3)n(C)c1)N=C[C@@H]1CCCN1C2=O`, the IC50 at DNA [3] and on DNA [4] was 8 µM in each case.
